According to EP3714904B1, “IMINODIACETIC ACID SUBSTITUTED CYCLODEXTRINS AS POTENTIATORS OF BETA-LACTAM ANTIBIOTICS” (NATIONAL CENTER FOR SCIENTIFIC RESEARCH "DEMOKRITOS" (NCSRD), priority 2019, dated 2020):
Where two headings read alike, the source gives them in different places.

Columns and labels:
Assay in all cases: MIC of β-lactams alone or with 50 µM IDACYD against clinical isolates
Assay type in all cases: cell-based
[1] = test system: Providencia stuartii; settings: Providencia stuartii, alone
Description: (§1) Further the in-vitro inhibitory activity of IDACYDs was tested against highly resistant pathogens. Tables 3, 4 and 5 show the effect of IDACYDs using a collection of 36 highly resistant Gram negative strains (Table 2, Kirby-Bauer disc diffusion method) producing NDM, VIM and IMP type MBLs as well as 6 isolates expressing serine beta-lactamases (ESBLs, AmpCs). […] Clinical isolates co-expressing ESBLs and/or AmpC β-lactamases along with MBLs where re-sensitized to both imipenem and meropenem, as expected. Table 2: Collection of clinical isolates used for in-vitro evaluation

[2] = test system: Proteus mirabilis; settings: Proteus mirabilis, alone
Description: as §1

[3] = test system: Escherichia coli; settings: Escherichia coli, alone
Description: as §1

[4] = test system: Serratia marcescens; settings: Serratia marcescens, isolate EUG-815 (VIM, CMY), alone
Description: as §1

[5] = test system: Klebsiella pneumoniae; settings: for MIC: Klebsiella pneumoniae, alone; for Imipenem + α-IDACYD MIC / Meropenem + α-IDACYD MIC: IDACYD 50 μM
Description: Further the in-vitro inhibitory activity of IDACYDs was tested against highly resistant pathogens. […] Table 2: Collection of clinical isolates used for in-vitro evaluation

[6] = test system: Acinetobacter baumannii; settings: Acinetobacter baumannii, alone, read-out: Imipenem MIC
Description: as §1

[7] = test system: Enterobacter gergoviae; settings: Pluralibacter gergoviae, alone, read-out: Imipenem MIC
Description: as §1

CC(C)(O/N=C(\C(=O)N[C@@H]1C(=O)N2C(C(=O)[O-])=C(C[n+]3ccccc3)CS[C@H]12)c1csc(N)n1)C(=O)O [Ceftazidime, reference compound]
8 µg/mL: MIC ([1]; isolate ESDY-4559 (VIM), read-out: Ceftazidime MIC)
32 µg/mL: MIC ([5]; isolate LAR-4011/15, read-out: Ceftazidime MIC)
128 µg/mL: MIC ([1]; isolate ALX- 21 (VIM, VEB), read-out: Ceftazidime MIC)
> 256 µg/mL: MIC ([2]; isolate ESDY-15184 (VIM, CMY), read-out: Ceftazidime MIC) | MIC ([3]; isolate TZAN-116 (VIM), read-out: Ceftazidime MIC) | MIC ([4]; read-out: Ceftazidime MIC) | MIC ([5]; isolate ALX-47 (OXA-48,CTX-M), read-out: Ceftazidime MIC) | MIC ([5]; isolate ESDY-5742 (IMP), read-out: Ceftazidime MIC) | MIC ([5]; isolate LA-28 (NDM, CTXM), read-out: Ceftazidime MIC) | MIC ([5]; isolate LA-82/16 (VIM, SHV), read-out: Ceftazidime MIC) | MIC ([5]; isolate LA-109/16 (VIM, CTXM), read-out: Ceftazidime MIC) | MIC ([5]; isolate UoA 12/227 (VIM), read-out: Ceftazidime MIC) | MIC ([5]; isolate UoA 1995 (VIM), read-out: Ceftazidime MIC)

C[C@@H](O)[C@H]1C(=O)N2C(C(=O)O)=C(SCCN=CN)C[C@H]12 [Imipenem, reference compound]
2 µg/mL: MIC ([5]; isolate EY-20S (CMY, SHV), read-out: Imipenem MIC)
1 µg/mL: MIC ([5]; isolate IT-17829 (CTXM, SHV), read-out: Imipenem MIC) | MIC ([5]; isolate TZAN-59 (β-lactamase: None), read-out: Imipenem MIC)
32 µg/mL: MIC ([5]; isolate 6/100 (VIM), read-out: Imipenem MIC) | MIC ([5]; isolate 2489 (NDM), read-out: Imipenem MIC) | MIC ([5]; isolate 2685 (VIM, CMY, CTXM), read-out: Imipenem MIC) | MIC ([5]; isolate L078/11 (KPC), read-out: Imipenem MIC) | MIC ([5]; isolate LA-34 (VIM, CMY), first entry of Table 3, read-out: Imipenem MIC) | MIC ([5]; isolate LA-34 (VIM, CMY), second entry of Table 3, read-out: Imipenem MIC) | MIC ([5]; isolate SEC-2 (VIM), read-out: Imipenem MIC)
4 µg/mL: MIC ([6]; isolate TZAN-40 (VIM, OXA-58)) | MIC ([1]; isolate ESDY-4559 (VIM), read-out: Imipenem MIC) | MIC ([1]; isolate ESDY-4563 (VIM, VEB), read-out: Imipenem MIC) | MIC ([2]; isolate ESDY-17 (VIM, CMY), read-out: Imipenem MIC) | MIC ([3]; isolate TZAN-116 (VIM), read-out: Imipenem MIC) | MIC ([3]; isolate TZAN-541 (VIM), read-out: Imipenem MIC) | MIC ([5]; isolate ALX-47 (OXA-48,CTX-M), read-out: Imipenem MIC) | MIC ([5]; isolate LA-419/16 (NDM,CTXM), read-out: Imipenem MIC) | MIC ([5]; isolate LAR-38I/15 (VIM, NDM, CTXM), read-out: Imipenem MIC) | MIC ([5]; isolate LAR-2873 (VIM-12), read-out: Imipenem MIC)
64 µg/mL: MIC ([5]; Table 5, Kpn LA 82/16 (VIM-1), read-out: Imipenem MIC) | MIC ([5]; Table 5, Kpn LAR 37II/15 (NDM-1, VIM-1, CTXM), read-out: Imipenem MIC) | MIC ([5]; isolate LAR-37II/15 (NDM, VIM, CTXM), read-out: Imipenem MIC) | MIC ([5]; isolate LAR-7547 (NDM, VIM, CTXM), read-out: Imipenem MIC) | MIC ([5]; isolate SEC-4 (VIM), read-out: Imipenem MIC)
16 µg/mL: MIC ([1]; isolate ALX-27 (VIM), read-out: Imipenem MIC) | MIC ([2]; Table 5, Pr m ESDY 15315 (VIM-1, CMY), read-out: Imipenem MIC) | MIC ([2]; isolate ESDY-15315 (VIM, CMY), read-out: Imipenem MIC) | MIC ([4]; read-out: Imipenem MIC) | MIC ([5]; Table 5, Kpn LA 26 (NDM-1), read-out: Imipenem MIC) | MIC ([5]; Table 5, Kpn LA 34 (VIM-1 CMY), read-out: Imipenem MIC) | MIC ([5]; Table 5, Kpn LA 109/16 (VIM-1), read-out: Imipenem MIC) | MIC ([5]; isolate ESDY-1780 (VIM, KPC), read-out: Imipenem MIC) | MIC ([5]; isolate ESDY-2681 (VIM-27), read-out: Imipenem MIC) | MIC ([5]; isolate LA-26 (NDM), read-out: Imipenem MIC) | MIC ([5]; isolate LA-109/16 (VIM, CTXM), read-out: Imipenem MIC) | MIC ([5]; isolate LAR-26I/15 (NDM, VIM, CTXM), read-out: Imipenem MIC) | MIC ([5]; isolate LAR-40II/15 (KPC), read-out: Imipenem MIC)
8 µg/mL: MIC ([6]; isolate TZAN-42 (VIM, OXA-58)) | MIC ([1]; isolate ALX- 21 (VIM, VEB), read-out: Imipenem MIC) | MIC ([2]; isolate ALX-13 (VIM, VEB), read-out: Imipenem MIC) | MIC ([2]; isolate ESDY-15184 (VIM, CMY), read-out: Imipenem MIC) | MIC ([7]; isolate AK-5227 (VIM, CMY)) | MIC ([7]; isolate AK-5240 (VIM, CMY)) | MIC ([5]; Table 5, Kpn ESDY 5742 (IMP-1), read-out: Imipenem MIC) | MIC ([5]; Table 5, Kpn LA419/16 (NDM-1), read-out: Imipenem MIC) | MIC ([5]; isolate ESDY-5742 (IMP), read-out: Imipenem MIC) | MIC ([5]; isolate LA-27 (NDM, CTXM), read-out: Imipenem MIC) | MIC ([5]; isolate LA-28 (NDM, CTXM), read-out: Imipenem MIC) | MIC ([5]; isolate LA-38 (NDM), read-out: Imipenem MIC) | MIC ([5]; isolate LA-82/16 (VIM, SHV), read-out: Imipenem MIC) | MIC ([5]; isolate LA-470/17 (NDM), read-out: Imipenem MIC) | MIC ([5]; isolate UoA 12/227 (VIM), read-out: Imipenem MIC) | MIC ([5]; isolate UoA 1995 (VIM), read-out: Imipenem MIC)

CO[C@@H]1[C@@H](OC)[C@H]2O[C@H]3[C@H](OC)[C@@H](OC)[C@@H](O[C@H]4[C@H](OC)[C@@H](OC)[C@@H](O[C@H]5[C@H](OC)[C@@H](OC)[C@@H](O[C@H]6[C@H](OC)[C@@H](OC)[C@@H](O[C@H]7[C@H](OC)[C@@H](OC)[C@@H](O[C@@H]1[C@@H](CN(CC(=O)O)CC(=O)O)O2)O[C@@H]7CN(CC(=O)O)CC(=O)O)O[C@@H]6CN(CC(=O)O)CC(=O)O)O[C@@H]5CN(CC(=O)O)CC(=O)O)O[C@@H]4CN(CC(=O)O)CC(=O)O)O[C@@H]3CN(CC(=O)O)CC(=O)O [α-IDACYD]
<0.25 µg/mL: Imipenem + α-IDACYD MIC ([5]; Kpn ESDY 5742 (IMP-1)) | Meropenem + α-IDACYD MIC ([5]; Kpn ESDY 5742 (IMP-1)) | Imipenem + α-IDACYD MIC ([5]; Kpn LA 82/16 (VIM-1)) | Meropenem + α-IDACYD MIC ([5]; Kpn LA 82/16 (VIM-1)) | Imipenem + α-IDACYD MIC ([5]; Kpn LA 109/16 (VIM-1)) | Meropenem + α-IDACYD MIC ([5]; Kpn LA 109/16 (VIM-1)) | Imipenem + α-IDACYD MIC ([5]; Kpn LA419/16 (NDM-1)) | Meropenem + α-IDACYD MIC ([5]; Kpn LA419/16 (NDM-1))
<0.5 µg/mL: Imipenem + α-IDACYD MIC ([5]; Kpn LA 34 (VIM-1 CMY)) | Meropenem + α-IDACYD MIC ([5]; Kpn LA 34 (VIM-1 CMY))
